# According to patent publication US11701345B2, “Car activator agents for cyclophosphamide-based treatments of cancer” (UNIVERSITY OF MARYLAND, BALTIMORE, priority 2017, dated 2023):
# Entries after “also recorded” stand apart in the source; their conditions may differ.
# Tests used:
# SU-DHL-4 cells = experiment: Hepatocyte/lymphoma co-culture with CHOP: cancer cell death, viability, caspase-3; assay type: cell-based, human
# Protocol: HPH were cultured in collagen-coated 12-well plates and pretreated with vehicle control (0.1% DMSO) or hCAR activator (1 mmol/L) for 24 hours. The wells were then separated with […] polycarbonate membrane inserts (Sigma-Aldrich). A total of 0.5×10^6 SU-DHL-4 cells suspended in supplemented Williams' Medium E were transferred into the insert chamber with a final volume of 2 mL/well. In separate coculture experiments, HPH were replaced with either WT or CAR-KO HepaRG cells. The cocultures were exposed to designated concentrations of the chemotherapy drugs in CHOP in the presence or absence of hCAR activator for various time intervals, as indicated.
# (§1) Homogenate proteins from treated HPH, H9c2 or HepaRG cells were resolved on NuPAGE Novex Bis-Tris 4% to 12% gels (Life Technologies) and electrophoretically transferred onto immobilon-P polyvinylidene difluoride membranes. Membranes were incubated with specific antibodies against human CAR (Perseus Proteomics), cleaved caspase-3 (Cell Signaling Technology), or g-H2AX (Millipore), diluted 1:1,000, 1:1,000, and 1:400, respectively. b-Actin was used to normalize protein loading. Following incubation with horseradish peroxidase goat antimouse or anti-rabbit IgG antibody, membranes were developed using SuperSignal West Pico Chemiluminescent Substrate (Thermo Scientific). Western blot signals were quantified by densitometry using ImageJ software from the National Institutes of Health.
# HPHs and H9c2 rat cardiomyocytes were seeded at 7.5×10^4 cells per well in 96-well plates. HPH were cultured for 24 hours before treatment with hCAR activator (1 mmol/L) or vehicle control (0.1% DMSO), followed by treatment with the chemotherapy drugs included in CHOP at a range of concentrations. Culture medium containing CHOP drugs and metabolites was exchanged between the cell types at pre-determined time points. A typical 3-[4,5-dimethylthiazol-2-yl]-2,5 diphenyl tetrazolium bromide (MTT) assay was carried out as described previously (21). Cell viability was expressed as the percentage of vehicle control (0.1% DMSO). Cocultured cells were assembled and treated as described above. The viability of the SU-DHL-4 cells was determined at selected time points with a Cellometer Auto T4 (Nexcelom Biosciences) using trypan blue exclusion.
# H9c2 cells = experiment: CHOP cytotoxicity in side-toxic H9c2 cells; assay type: cell-based, rat; conditions: FIGS. 10A-10C, 11A-11F
# Protocol: as §1
# HPHs and H9c2 rat cardiomyocytes were seeded at 7.5×10^4 cells per well in 96-well plates. […] Culture medium containing CHOP drugs and metabolites was exchanged between the cell types at pre-determined time points. […] Cell viability was expressed as the percentage of vehicle control (0.1% DMSO). […] The viability of the SU-DHL-4 cells was determined at selected time points with a Cellometer Auto T4 (Nexcelom Biosciences) using trypan blue exclusion.
# EL4-derived xenograft = EL4-derived xenograft in hCAR transgenic mice treated with CHOP; assay type: in vivo, mouse; conditions: hCAR-TG mice, compared with vehicle, CITCO and CHOP controls; FIGS. 13-14
# Protocol: The effects of the novel hCAR activator e.g. CITCO on the CHOP based anticancer therapy has been examined in EL4-derived xenograft hCAR transgenic mouse model (FIG. 12). The tumor volume reduction was measured to determine the effects of hCAR activator on the CHOP treatment upon xenograft tumor model in mouse.
compound,measurement,setting,value
"Clc1ccc(-c2nc3sccn3c2/C=N/OCc2ccc(Cl)c(Cl)c2)cc1 [CITCO, (E)-6-(4-chlorophenyl)imidazo[2,1-b]thiazole-5-carbaldehyde O-(3,4-dichlorobenzyl) oxime]",effect on CHOP anticancer activity (cancer cell death),"SU-DHL-4 cells; hepatocyte/lymphoma co-culture, added to CHOP, FIGS. 10B-C",enhances CHOP-mediated cytoxicity; also recorded: potentiates the beneficial effects of CHOP in causing cancer cell death
same,Caspase-3 expression on addition to CHOP,"SU-DHL-4 cells; lymphoma cells, FIGS. 11A-11F",induction of apoptosis protein caspase-3; also recorded: dose dependent response of Caspase-3 expression
same,effect on CHOP-mediated cytotoxicity in H9c2 cells,H9c2 cells,not H9c2 cells
same,"effect on therapeutic effects of CHOP (tumor volume, tumor mass)",EL4-derived xenograft,potentiate the therapeutic effects of the CHOP regimen
